Data set [1] is described as follows: Radical scavenging monitored by EPR spectroscopy, GO•. To be noted: after 60 min of reaction; C/CMC = 100. On the procedure:
(§1) We began with an attempt to determine if the N-oxide surfactants can participate in the radical scavenging process when micelles are well-formed. Thus, the reaction mixtures containing a surfactant at C/CMC = 100, which is a typical concentration found in formulations, and GO• or DPPH• at 2 mM were prepared along with the control samples and monitored over time (solutions of DPPH• and GO• without surfactants).
(§2) The scavenging capacity of the surfactants was judged quantitatively by measuring the percentage of remaining GO• and DPPH• after a fixed reaction time. The relative concentration of GO• and DPPH• was calculated from Equation (1):(1) remaining radical%=It/I0×100% where I0 and It correspond to the EPR signal integral intensity of a radical in the absence and presence of the N-oxide surfactants after a fixed time, respectively.
(§3) The antiradical properties were studied by EPR using a Bruker ELEXYS E500 spectrometer equipped with an NMR gaussmeter and frequency counter. A microwave power of 10 mW, a modulation frequency of 100 kHz, a modulation amplitude of 1 G, a time constant of 82 ms, and a conversion time of 164 ms were adopted. The antiradical properties were evaluated against two model radicals: 2,2-diphenyl-1-picrylhydrazyl (DPPH•) and galvinoxyl (GO•). […]

Data set [2] can be described thus: Radical scavenging monitored by EPR spectroscopy, DPPH•. To be noted: after 60 min of reaction; C/CMC = 100. On the procedure: as §1, §2, §3
The nature of data set [3]: DPPH• scavenging kinetics by UV-vis, pseudo-first-order conditions. To be noted: for second-order rate constant k2 for the reaction with DPPH•: ethanol, 298 K, deaerated, DPPH• 2.2 × 10^−4 M, surfactant 0.012-0.12 M. Here is the method: After confirming that the absorption maximum at 517 nm of DPPH• is outside the surfactant’s absorption range, the rate of the DPPH•-scavenging reaction of the N-oxides was measured by monitoring the decrease in absorbance of this maximum. To ensure that the decay of DPPH• obeyed pseudo-first-order kinetics, the concentration of surfactants was at least a 54-fold excess of the DPPH• concentration. As explained in SI, the calculated pseudo-first-order rate constants, kobs, increased linearly with the concentration of Cn(DAPANO)2 and CnPDA (shown in SI). The second-order rate constants k2 for the reaction between the N-oxides and DPPH• were determined from the slopes of the linear plots of kobs vs. the concentration of the surfactants and are given in Figure 6.
The measurements were done under deaerated conditions at 298 K in ethanol solutions (2 mL in a 10 mm quartz cuvette) containing DPPH^• (C = 2.2 × 10^−4 M) and a surfactant at each of five different concentrations, namely C1 = 0.12 M, C2 = 0.09 M, C3 = 0.06 M, C4 = 0.03 M, and C5 = 0.012 M. UV−vis spectral changes associated with the undergoing reaction were monitored at 516 nm, using a Varian Cary 50Conc UV−visible Spectrophotometer. The following equations of the calibration curve were used to calculate DPPH^• concentrations in the reaction system: Abs = 4.0189 × C[mM] + 0.00813 (R^2 = 0.9998). The rate of DPPH^• scavenging reaction was determined using pseudo-first-order kinetics (the concentration of CnPDA or Cn(DAPANO)2 was maintained at more than 54-fold excess of the radical concentration); further details are given as Supporting Information.
Background: Loss of DPPH colour is used to gauge radical scavenging.

The nature of data set [4]: MTT cell viability assay, HaCaT. To be noted: human, HaCaT cells (immortalized human keratinocytes), evaluated for CMC. The format is cell-based, human. Here is the method:
(§4) HaCaT (immortalized human keratinocytes from histologically normal skin) cell line was obtained from the CLS Cell Lines Service GmbH (Eppelheim, Germany). HGFs (human gingival fibroblasts) derive from primary cell culture. The cells were isolated according to the procedure described by Saczko et al. and patented by Saczko et al.. Cells were grown in plastic cell culture flasks in Dulbecco’s Modified Eagle’s Medium, supplemented with fetal bovine serum (FBS, Lonza, Morrisville, NC, USA), with 100 IU/mL penicillin, 50 mg streptomycin, and 125 μg amphotericin B (Sigma). The cells were maintained in a humidified atmosphere at 37 °C and 5% CO2. The cells were regularly maintained by systematic passaging. For experimental purposes, the cells were removed by trypsinization (0.25% Trypsin-EDTA, Sigma).
(§5) MTT (Sigma) test was used to determine the viability of HaCaT and HGFs cells. The MTT assay was used to test mitochondrial metabolic functioning. Cells were seeded on flat bottom 96-well tissue culture plates at a density of 10^4 cells/well and allowed to grow in a CO2 incubator at 37 °C overnight. In the case of these studies, the culture medium was removed, surfactant solutions were added, and the cells were exposed for 24 and 48 h to compounds at doses ranging from 50 to 2000 μg/mL. After incubation, MTT assay was applied according to the manufacturer protocol. The absorbance was measured at 570 nm using a multiwell plate reader (EnSpire Multimode Reader, Perkin Elmer). Each experiment was performed in a few independent repetitions. Mean values and standard deviations of all results were calculated. The final results were expressed as the percentage of mitochondrial function relative to untreated control cells.
On the technique in general: Tetrazolium assays rely on reduction of a dye to a coloured formazan, in cell work by metabolically active cells.

Data set [5] relates to normal human keratinocytes (HaCaT). The data set can be described thus: MTT cell viability assay, HaCaT. Format: cell-based. The settings on record: Homo sapiens, HaCaT, MTT. On the procedure:
as §4, §5

The nature of data set [6]: MTT cell viability assay, HGFs. The settings on record: human, primary human gingival fibroblasts (HGFs), evaluated for CMC; for viability at 24 h: read-out: Viability 24 h HGF’s; for viability at 48 h: read-out: Viability 48 h HGF’s. The format is cell-based, human. On the procedure: as §4, §5
In data set [7] the test system is primary fibroblasts (HGFs). The data set can be described thus: MTT cell viability assay, HGFs. The format is cell-based, human. The settings on record: Homo sapiens, Fibroblast, MTT. On the procedure:
as §4, §5

Details of data set [8]: method as in PMID 23098238. To be noted: cited from earlier work.
Details of data set [9]: method as in PMID 23098238. To be noted: cited from earlier work. This is another data set of the same source.
Data set [10] can be described thus: Hydrodynamic radius of micelles by dynamic light scattering (DLS). The settings on record: 298 K, surfactant at 100 x CMC. The format is physicochemical. Here is the method:
The hydrodynamic diameter for CnPDA was determined by the DLS method. The measurements were performed using a Nano Series Zetasizer from Malvern Instruments (UK) with a detection angle of 173°, equipped with a He−Ne laser (632.8 nm) and an ALV 5000 multibit multitau autocorrelator. Before the measurements, the samples were filtered through a filter (with a pore size of 0.2 μm) directly into the optical cell to remove any impurities. All of the DLS measurements were performed at 298 ± 0.1 K and at a surfactant concentration a hundred times higher than the critical micelle concentration (CMC). Each value was obtained as the average of three runs with at least 10 measurements. The DTS software (Nano) was used to evaluate the data.

Where [11] appears, read: 24 h incubation, read-out: IC50 HaCaT 24 h.
Where [12] appears, read: 48 h incubation, read-out: IC50 HaCaT 48 h.
Setting [13] is: 24 h incubation, read-out: IC50 HGFs 24 h.
Where [14] appears, read: 48 h incubation, read-out: IC50 HGFs 48 h.

Converted amounts (≈) assume the structure as drawn. Like-named read-outs stand apart in the source and are kept apart here. Marks after values point to notes of the source that are not given here.

Turning to `CCCCCCCCCCCC(=O)N(CCC[N+](C)(C)[O-])CCC[N+](C)(C)[O-]` [C12(DAPANO)2], the “reduced the number of GO• by” value in data set [1] was 88%. In addition, the “reduced the number of DPPH• by” value in data set [2] was 86%. Also, in data set [3], the “second-order rate constant k2 for the reaction with DPPH•” value worked out at 0.00108 M⁻¹ s⁻¹. In addition, the “k2 higher in comparison with the CnPDA homolog” value in [3] (reaction with DPPH•) is 19%. Moreover, the viability (usually a read-out of living cells in per cent, often relative to untreated cells) at 24 h in data set [4] was found to be 9.2%; in data set [6] it was 17.1%. Also, the viability at 48 h worked out at 16.4% in data set [4] and 10.8% in data set [6]. Further, the 50% inhibitory concentration (IC50) – broadly, the concentration that gives 50% inhibition – in data set [5] (setting [11]) turned out to be 95 µg/mL (≈ 237 µM); in [5] (setting [12]) it was 94 µg/mL (≈ 234 µM); in data set [7] (setting [13]) it was 27.9 µg/mL (≈ 69.5 µM); in data set [7] (setting [14]), 1.2 µg/mL (≈ 2.99 µM). Further, in data set [8], the CMC is listed as 5.5·10^−3 a M. Besides, in data set [9], the “RH DLS” value is on record as 2.04 ^a nm.

For `CCCCCCCCCCCC(=O)NCCC[N+](C)(C)[O-]` [C12PDA], the “RH DLS” value in data set [10] is listed as 1.96 nm. Also, the “reduced the number of GO• by” value in [1] is 59%. Also, the “reduced the number of DPPH• by” value in data set [2] came to 24%. Moreover, the “second-order rate constant k2 for the reaction with DPPH•” value in data set [3] was 0.000905 M⁻¹ s⁻¹. In addition, the viability at 24 h in [4] came out at 89.4%; in data set [6], 55.5%. In addition, the viability at 48 h in data set [4] was 116%; in data set [6], 44.8%. Further, the concentration for half-maximal inhibition (IC50) in data set [5] (setting [11]) worked out at 31 µg/mL (≈ 103 µM); in data set [5] (setting [12]), 18.8 µg/mL (≈ 62.6 µM); in data set [7] (setting [13]), 51.9 µg/mL (≈ 173 µM); in [7] (setting [14]), 49.8 µg/mL (≈ 166 µM).

Values taken from publication PMC8346996, “Antiradical Properties of N-Oxide Surfactants—Two in One” (International Journal of Molecular Sciences, 2021).
